Source: patent US9284283B2, “Macrocyclic compounds for modulating IL-17” (ENSEMBLE THERAPEUTICS CORPORATION, priority 2012, dated 2016)
pIC50: −log10 of the molar value.

Assays:
[1] = target: T1, recombinant human IL17a (binding to its receptor IL17R) (Homo sapiens, UniProt Q16552); experiment: IL-17 competition ELISA I (IL17a coated, IL17R/Fc binding)
T1 construct: purchased R&D Systems 317-ILB (IL17a); 177-IR (IL17R/Fc)
T1 sequence (Q16552 20-155 limits assumed): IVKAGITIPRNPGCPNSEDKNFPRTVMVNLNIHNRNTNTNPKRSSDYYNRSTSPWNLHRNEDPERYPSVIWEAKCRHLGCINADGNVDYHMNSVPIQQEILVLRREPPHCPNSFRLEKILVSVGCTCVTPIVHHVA
Procedure: ELISA I: The ability of the compounds to block binding of IL17a to its receptor, IL17R, was analyzed in a competition ELISA format. High binding 96-well plates (Costar #9018) were coated with 20 nM of recombinant human IL17a (R&D Systems #317-ILB) in PBS (0.64 μg/mL), 100 μL/well, for 30 min at 37′C followed by 5 min at 4′C. Plates were then washed in PBST (PBS/0.05% Tween-20) on a plate washer, (Biotech EL-450) blocked with protein-free blocking buffer (Thermo Scientific #37573) in 250 μL/well for 30 min on shaker at room temperature, and then washed again. Compound dilutions prepared in PBST were added into the wells in duplicates followed by the addition of IL17R/Fc (R&D Systems #177-IR) at a final concentration of 12 nM. Plates were then incubated for 30 min at room temperature on the shaker. Wells with no compound served as a positive “no competitor” control, while wells with no IL17R/Fc and no compound served as a blank negative control. After an additional PBST wash, 50 ng/mL HRP-conjugated goat anti-human Fc IgG (KPL #04-10-20) was added to the plate for 30 min at room temperature, followed by PBST wash and addition of SureBlue™ TMB (KPL #52-00-03). After the sufficient color development, the reaction was fixed by the addition of 100 μL/well 0.5 N HCl and absorbance was measured at 450 nm on Biotek plate reader.
Data were processed using BioAssay Enterprise v10.1.4 (CambridgeSoft) software. Linear OD λ450 were plotted against log concentration (x) and fitted to a 4-parameter logistic equation. IC50 was calculated using positive ‘no competitor’ control data as an upper limit and blank control as a lower limit in each assay.

[2] = target: T2, biotinylated human IL-17 (binding to IL17R/Fc) (Homo sapiens, UniProt Q16552); experiment: IL-17 competition ELISA II (captured IL17R/Fc, biotinylated IL-17)
T2 construct: purchased R&D Systems 317-ILB (IL-17, biotinylated); 177-IR (IL17R/Fc)
T2 sequence (Q16552 20-155 limits assumed): T1 sequence (Q16552 20-155 limits assumed)
Summary of the method: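 Anti-human IgG-coated plates captured IL17R/Fc (10 nM), then compound (5-fold dilutions from 1 μM) and biotinylated human IL-17 (20 nM stock) were added for 30 min at room temperature in PBST. Bound IL-17 detected by streptavidin-HRP/TMB at 450 nm. IC50 from 4-parameter logistic fit between no-competitor and blank controls.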

SMILES	pIC50 [1]	pIC50 [2]
O=C1CC2(CCCC2)CC(=O)N[C@H](Cc2ccc(NC(=O)[C@@H](NC(=O)Cc3ccccc3)C3CCCCC3)cc2)C(=O)NCCCCCCN1 [Compound 346]	5.00 to 6.00	> 7.00
O=C1CNC(=O)[C@@H](Cc2ccc(NC(=O)[C@@H](NC(=O)c3cccc(F)c3)C3CCCCC3)cc2)NC(=O)CC2(CCCC2)CC(=O)NCCCCCN1 [Compound 382]	6.00 to 7.00	> 7.00
O=C1CNC(=O)[C@@H](Cc2ccc(NC(=O)[C@@H](NC(=O)c3cccc(O)c3)C3CCCCC3)cc2)NC(=O)CC2(CCCC2)CC(=O)NCCCCCN1 [Compound 376]	6.00 to 7.00	> 7.00
O=C1CC2(CCCC2)CC(=O)N[C@H](Cc2ccc(NC(=O)[C@H](Cc3ccccc3Cl)NC(=O)Cc3ccc(CO)cc3)cc2)C(=O)NCCCCCCCCCN1 [Compound 358]	6.00 to 7.00	> 7.00
O=C1CNC(=O)[C@@H](Cc2ccc(NC(=O)[C@@H](NC(=O)c3cccnc3)C3CCCCC3)cc2)NC(=O)CC2(CCCC2)CC(=O)NCCCCCN1 [Compound 362]	5.00 to 6.00	6.00 to 7.00
O=C1CC2(CCCC2)CC(=O)N[C@H](Cc2ccc(NC(=O)[C@@H](NC(=O)Cc3ccccc3)C3CCCCC3)cc2)C(=O)NCCCCCCCN1 [Compound 348]	5.00 to 6.00	6.00 to 7.00
O=C1CC2(CCCC2)CC(=O)N[C@H](Cc2ccc(NC(=O)[C@H](Cc3ccccc3Cl)NC(=O)Cc3ccc(CO)cc3)cc2)C(=O)NCCCCCCN1 [Compound 354]	6.00 to 7.00	> 7.00
CN1CCCCCNC(=O)CC2(CCCC2)CC(=O)N[C@H](Cc2ccc(NC(=O)[C@@H](NC(=O)Cc3ccccc3)C3CCCCC3)cc2)C(=O)NCC1=O [Compound 335]	6.00 to 7.00	> 7.00
O=C1CNC(=O)[C@@H](Cc2ccc(NC(=O)[C@H](Cc3ccccc3Cl)NC(=O)c3cc(F)c(F)c(F)c3)cc2)NC(=O)CC2(CCCC2)CC(=O)NCCCCCN1 [Compound 326]	6.00 to 7.00	–
O=C1CC2(CCCC2)CC(=O)N[C@H](Cc2ccc(NC(=O)[C@H](Cc3ccccc3Cl)NC(=O)Cc3ccccc3)cc2)C(=O)N[C@@H](CO)C(=O)NCCCCCN1 [Compound 319]	6.00 to 7.00	–
O=C1CNC(=O)[C@@H](Cc2ccc(NC(=O)[C@H](Cc3ccccc3Cl)NC(=O)Cc3ccccc3)cc2)NC(=O)CC2(CCCC2)CC(=O)NCCCCCOC(=O)CN1 [Compound 322]	6.00 to 7.00	–
O=C1CCCCCNC(=O)CNC(=O)[C@@H](Cc2ccc(NC(=O)[C@H](Cc3ccccc3Cl)NC(=O)Cc3ccccc3)cc2)NC(=O)CC2(CCCCC2)CN1 [Compound 286]	6.00 to 7.00	–
COC(=O)[C@@H]1CCCCNC(=O)CNC(=O)[C@@H](Cc2ccc(NC(=O)[C@H](Cc3ccccc3Cl)NC(C)=O)cc2)NC(=O)CC2(CCCC2)CC(=O)N1 [Compound 248]	> 7.00	–
COC(=O)[C@@H]1CCCCNC(=O)CNC(=O)[C@@H](Cc2ccc(NC(=O)[C@@H](NC(=O)Cc3ccccc3)C3CCCCC3)cc2)NC(=O)CC2(CCCC2)CC(=O)N1 [Compound 282]	> 7.00	–
O=C1CNC(=O)[C@@H](Cc2ccc(NC(=O)[C@H](Cc3ccccc3Cl)NC(=O)Cc3ccc(O)cc3)cc2)NC(=O)CC2(CCCC2)CC(=O)NCCCCCN1 [Compound 279]	> 7.00	–
O=C1CNC(=O)C(Cc2ccc(NC(=O)C(Cc3cccc(Cl)c3)NC(=O)Cc3ccccc3)cc2)NC(=O)CC2(CCCC2)CC(=O)NCCCCCN1 (stereo not drawn) [Compound 239]	> 7.00	–
O=C1CNC(=O)[C@@H](Cc2ccc(NC(=O)[C@H](Cc3ccccc3Cl)NS(=O)(=O)Cc3ccccc3)cc2)NC(=O)CC2(CCCC2)CC(=O)NCCCCCN1 [Compound 272]	6.00 to 7.00	–
O=C1CNC(=O)[C@@H](Cc2ccc(NC(=O)[C@H](Cc3ccccc3Cl)NC(=O)Cc3ccc(O)cc3)cc2)NC(=O)CC2(CCCC2)CC(=O)N[C@H](C(=O)O)CCCCN1 [Compound 265]	> 7.00	–
C[C@@H]1NC(=O)[C@@H](Cc2ccc(NC(=O)[C@H](Cc3ccccc3Cl)NC(=O)Cc3ccccc3)cc2)NC(=O)CC2(CCCC2)CC(=O)NCCCCCNC1=O [Compound 290]	6.00 to 7.00	–
